These results are taken from BindingDB's records for patent US20240083857 (Bayer Pharma Aktiengesellschaft, 2024).

The target in the assay is Epidermal growth factor receptor (Homo sapiens, UniProt P00533). Briefly: EGFR Kinase Assay. The protocol:
For the assay 50 nL of a 100 fold concentrated solution of the test compound in DMSO was pipetted into a black low volume 384 well microtiter plate (Greiner Bio-One, Frickenhausen, Germany), 2 μL of a solution of EGFR in aqueous assay buffer [50 mM Hepes/HCl pH 7.0, 1 mM MgCl2, 5 mM MnCl2, 0.5 mM activated sodium ortho-vanadate, 0.005% (v/v) Tween-20]were added and the mixture was incubated for 15 min at 22° C. to allow pre-binding of the test compounds to the enzyme before the start of the kinase reaction. […] The concentration of EGFR was adjusted depending of the activity of the enzyme lot and was chosen appropriate to have the assay in the linear range, typical concentration were about 3 U/ml. The reaction was stopped by the addition of 5 μl of a solution of HTRF detection reagents (0.1 μM streptavidine-XL665 [Cis Biointernational] and 1 nM PT66-Tb-Cryptate, an terbium-cryptate labelled anti-phospho-tyrosine antibody from Cis Biointernational [instead of the PT66-Tb-cryptate PT66-Eu-Chelate from Perkin Elmer can also be used]) in an aqueous EDTA-solution (80 mM EDTA, 0.2% (w/v) bovine serum albumin in 50 mM HEPES pH 7.5).The resulting mixture was incubated 1 h at 22° C. to allow the binding of the biotinylated phosphorylated peptide to the streptavidine-XL665 and the PT66-Eu-Chelate. Subsequently the amount of phosphorylated substrate was evaluated by measurement of the resonance energy transfer from the PT66-Tb-Cryptate to the streptavidine-XL665.

Chain of Epidermal growth factor receptor (P00533 whole entry): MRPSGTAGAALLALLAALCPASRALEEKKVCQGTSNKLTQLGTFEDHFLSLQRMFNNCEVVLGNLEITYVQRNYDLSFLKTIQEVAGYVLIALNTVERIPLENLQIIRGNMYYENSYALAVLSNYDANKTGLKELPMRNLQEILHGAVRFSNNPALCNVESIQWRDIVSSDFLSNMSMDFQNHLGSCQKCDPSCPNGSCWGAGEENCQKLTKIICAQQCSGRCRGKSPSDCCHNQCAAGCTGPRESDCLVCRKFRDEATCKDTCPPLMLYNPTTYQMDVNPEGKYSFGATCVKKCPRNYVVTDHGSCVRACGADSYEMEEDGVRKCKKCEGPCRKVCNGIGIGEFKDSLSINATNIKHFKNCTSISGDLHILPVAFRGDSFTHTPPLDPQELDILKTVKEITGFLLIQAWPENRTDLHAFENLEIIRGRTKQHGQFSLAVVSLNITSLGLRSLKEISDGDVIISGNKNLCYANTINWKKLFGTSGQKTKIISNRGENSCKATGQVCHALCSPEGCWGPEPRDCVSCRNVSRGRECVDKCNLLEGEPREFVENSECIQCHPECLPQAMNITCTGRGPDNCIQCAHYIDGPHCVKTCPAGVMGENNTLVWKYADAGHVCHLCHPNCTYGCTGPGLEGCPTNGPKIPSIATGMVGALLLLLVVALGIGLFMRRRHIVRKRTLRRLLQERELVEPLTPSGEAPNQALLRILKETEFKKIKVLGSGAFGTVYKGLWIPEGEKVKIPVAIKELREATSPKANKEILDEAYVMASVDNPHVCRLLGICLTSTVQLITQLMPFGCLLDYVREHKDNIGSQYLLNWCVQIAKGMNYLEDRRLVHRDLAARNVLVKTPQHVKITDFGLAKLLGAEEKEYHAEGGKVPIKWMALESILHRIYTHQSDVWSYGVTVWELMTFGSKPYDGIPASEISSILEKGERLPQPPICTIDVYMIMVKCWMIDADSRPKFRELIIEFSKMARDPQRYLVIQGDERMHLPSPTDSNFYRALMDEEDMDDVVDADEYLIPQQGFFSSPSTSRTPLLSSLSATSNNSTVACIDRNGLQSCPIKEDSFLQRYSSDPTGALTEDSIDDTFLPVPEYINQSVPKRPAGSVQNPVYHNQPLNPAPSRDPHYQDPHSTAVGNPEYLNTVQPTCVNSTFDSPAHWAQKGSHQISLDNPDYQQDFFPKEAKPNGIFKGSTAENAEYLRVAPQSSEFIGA

Turning to `COc1cc2nc(C)nc(NC(C)c3ccc(-c4ccccc4CNCC(=O)NCc4ccccc4)s3)c2cc1OC` (stereo unspecified) [US20240083857, Example 284], the 50% inhibitory concentration (IC50) is > 20 µM.

For the molecule `COCCNC(=O)CNCc1ccccc1-c1ccc(C(C)Nc2nc(C)nc3cc(OC)c(OC)cc23)s1` (stereo unspecified) [US20240083857, Example 283], the 50% inhibitory concentration (IC50) is > 20 µM. On to `Cc1nc(N[C@H](C)c2ccccc2)c2cc(Br)ccc2n1` [US20240083857, Example 29], for which the concentration for half-maximal inhibition (IC50) was > 20 µM.

As for `COc1cc2nc(C)nc(N[C@H](C)c3cc4cccc(OC)c4o3)c2cc1OC` [US20240083857, Example 33], the 50% inhibitory concentration (IC50) is > 20 µM.

Take `CNC(=O)CNCc1ccccc1-c1ccc(C(C)Nc2nc(C)nc3cc(OC)c(OC)cc23)s1` (stereo unspecified) [US20240083857, Example 282]: the half-maximal inhibitory concentration (IC50) was > 20 µM. Regarding `COc1cc2nc(C)nc(N[C@H](C)c3ccc(C#N)cc3)c2cc1OC` [US20240083857, Example 189], the 50% inhibitory concentration (IC50) was > 20 µM. Next, `COc1cc2nc(C)nc(NC(C)c3ccc(-c4ccccc4CNCC(=O)N(C)C)s3)c2cc1OC` (stereo unspecified) [US20240083857, Example 280]: > 20 µM; `Cc1nc(N[C@H](C)c2ccc(F)cc2)c2cc(Br)ccc2n1` [US20240083857, Example 31]: > 20 µM. The figure for `COc1cc2nc(C)nc(NC(C)c3ccc(-c4ccccc4CNCC(=O)Nc4ccccc4)s3)c2cc1OC` (stereo unspecified) [US20240083857, Example 289] is > 20 µM. Turning to `Cc1nc(NC(C)c2ccc(-c3ccccc3CN(C)C)s2)c2cc(N3CCCC3)ccc2n1` (stereo unspecified) [US20240083857, Example 415], the half-inhibitory concentration (IC50) is > 20 µM.

Regarding `COc1cc2nc(C)nc(NC(C)c3ccc(-c4ccccc4CNCC(N)=O)s3)c2cc1OC` (stereo unspecified) [US20240083857, Example 279], the IC50 is > 20 µM.

Broadly, the IC50 is the point on the concentration scale where inhibition reaches its midpoint. A low value points to greater potency.
